# Marks after values point to notes of the source that are not given here.
# Key:
# [1] = molecular target: T1, α4-subunit of the α4β1 (VLA-4) and α4β7 integrins (Homo sapiens, UniProt P13612); conditions: MS patients after anti-α4 integrin antibody administration; cited from earlier work
# T1 construct: host or cells: MS patients (in vivo, endogenous protein)
# [2] = test system: human placenta; conditions: 6-8 hour vascular perfusion of placenta; cited from earlier work
# [3] = molecular target: CXCR4 (Homo sapiens, UniProt P61073); conditions: in vivo; cited from earlier work
# Chain of CXCR4 (P61073 whole entry, species assumed, the tested form may be a part): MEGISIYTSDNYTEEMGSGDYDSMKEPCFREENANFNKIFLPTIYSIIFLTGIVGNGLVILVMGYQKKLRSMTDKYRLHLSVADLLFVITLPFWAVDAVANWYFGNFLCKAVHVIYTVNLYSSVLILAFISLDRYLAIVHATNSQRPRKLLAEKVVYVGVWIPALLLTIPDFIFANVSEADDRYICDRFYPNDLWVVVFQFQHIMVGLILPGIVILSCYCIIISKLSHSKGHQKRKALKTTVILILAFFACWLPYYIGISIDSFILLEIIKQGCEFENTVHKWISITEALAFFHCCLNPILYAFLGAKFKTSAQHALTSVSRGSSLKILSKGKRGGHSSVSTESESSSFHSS
# [4] = test system: human term placentas; assay: Yield of TNC, CD34+CD45dim cells and CFU from placenta infused with cell-liberating compounds; format: cell-based; conditions: infusion in PBS+, incubated 3-8 hours at 37° C., mean, N = 5; for Yield of colony-forming unit cells (CFU) obtained from placenta related to cord blood unit from the same donor: Methocult 12-14 days
# Excerpt: HSCs and HPCs of the current invention were collected from 30 human term placentas by use of different cell-liberating compounds. Following IRB approval and informed consent, human term placentas were obtained from healthy females following caesarian section. Freshly obtained human placentas, which had been subjected to a conventional cord blood recovery process by draining substantially all of the cord blood from the placenta were used. Cord blood was collected from umbilical cord using standard techniques. Placentas were first infused with an anticoagulant/vasodilator solution (Heparin 30 […] 0.05 mg/ml) at a temperature of 20° C. For infusion procedures, artery and vein of umbilical cord were further cannulated and connected to a reservoir. Pressure in the umbilical cord artery and vein was constantly measured using Baxter pressure transducers (Protocol Systems, Portland, Oreg.). Constant temperature of infusate was maintained using heat exchange unit connected to temperature-controlled water bath. Placentas was infused with 100 ml phosphate buffered saline with additives: heparin (10 […]-acetyl-cysteine (1 mM), gentamycin (0.05 mg/ml) (PBS+) (Experiment 1), or 100 ml PBS+ with 3 mg/L AMD3100 (Sigma, St. Louis, Mo.) (Experiment 2); or 100 ml PBS+ with 1 mg/ml BIO5192 (Experiment 3). BIO5192 was supplied by AnorMED (Vancouver, BC) as a sterile powder and reconstituted in pH 7.0 ethanol:propylene glycol:water (10:36:54). In Experiment 4 100 ml PBS+ with 1 mg/ml Trypsin and 0.1 mg/ml Collagenase I (Sigma, St. Louis, Mo.) was infused into the placental artery or vein. In Experiment 5 100 ml PBS+ with Etoposide (1 mM) was infused into placental vein. […] Following incubation, fluid with cells was drained out of placental vessels and umbilical vein was infused with 100 ml of PBS and later flushed out 4 times via the umbilical artery. Collected cell suspension was centrifuged for 10 min at 1000 rpm, cells at the bottom collected and reconstituted in 10 ml PBS with heparin for further analyses. The following analyses were performed on cord blood and cell suspensions obtained from placenta: number of total nucleated cells determined by flow cytometry, number of CD34^+ and CD34^+CD45^dim cells determined by immunostaining with antibodies to CD34 and CD45, flow cytometry performed using FACS Calibur flow cytometer (BD Biosciences) and FlowJo software. Amounts of colony-forming unit cells were determined by culturing cells for 12-14 days in Methocult® medium (Stem Cell Technologies, Vancouver, Canada) according to manufacturer's instruction. Data obtained from cells collected from placental circulation were normalized to same variables obtained by analyses of cord blood cells (cord blood unit) collected from the corresponding placenta and are presented as percent of cord blood unit.
# [5] = molecular target: α4β1 integrin (Homo sapiens, UniProt P05556+P13612); conditions: unactivated and activated forms of α4β1 integrin; cited from earlier work
Molecule,Circulating HSPCs [1],Increase of yield of HSC from perfusate as compared to cord blood unit HSCs [2],Mobilization of hematopoietic stem cells from the bone marrow to the bloodstream [3],Yield of colony-forming unit cells (CFU) obtained from placenta related to cord blood unit from the same donor [4],Yield of CD34+CD45dim cells obtained from placenta related to cord blood unit from the same donor [4],Yield of TNC obtained from placenta related to cord blood unit from the same donor [4],Kd [5]
natalizumab: recombinant humanized neutralizing IgG4 monoclonal antibody that binds the α4-subunit of α4β1 (VLA-4) and α4β7 integrins,rapid and sustained increase in circulating HSPCs,,,,,,
"c1cc(CN2CCCNCCNCCCNCC2)ccc1CN1CCCNCCNCCCNCC1 [AMD3100, 1,1′-[1,4-phenylene-bis(methylene)]-bis-1,4,8,11-tetraazacyclotetradecane]",,several-fold,strong inducer of mobilization of hematopoietic stem cells,332* %,412* %,31%,
Cc1ccccc1NC(=O)Nc1ccc(CC(=O)N(C)[C@@H](CC(C)C)C(=O)NCC[C@H](NC(=O)[C@@H]2CCCN2S(=O)(=O)c2cc(Cl)cc(Cl)c2)C(=O)O)cc1 [BIO5192],,,,423* %,524* %,24%,< 0.01 nM
COc1cc([C@@H]2c3cc4c(cc3[C@@H](O[C@@H]3O[C@@H]5CO[C@@H](C)O[C@H]5[C@H](O)[C@H]3O)[C@H]3COC(=O)[C@H]23)OCO4)cc(OC)c1O [Etoposide],,,,211* %,185* %,18%,

# From patent US8574899B2, “Methods for augmentation collection of placental hematopoietic stem cells and uses thereof” (priority 2010, dated 2013)
